Values after ≈ are worked out from the molar mass of the structure shown. Like-named read-outs stand apart in the source and are kept apart here.
Legend:
Assay type in all cases: cell-based
[1] = test system: Staphylococcus aureus MSSA (Newman); assay: broth microdilution MIC assay, Staphylococcus aureus MSSA (Newman); conditions: for MIC: Staphylococcus aureus; for Antibacterial activity Staphylococcus aureus (MSSA): MIC100 class score, broth microdilution
[2] = test system: Staphylococcus aureus MRSA (COL); assay: broth microdilution MIC assay, Staphylococcus aureus MRSA (COL); conditions: for MIC: Staphylococcus aureus, MRSA; for Antibacterial activity Staphylococcus aureus (MRSA): MIC100 class score, broth microdilution
[3] = test system: Staphylococcus epidermidis (PCI 1200, ATCC12228); assay: broth microdilution MIC assay, Staphylococcus epidermidis; conditions: ATCC12228, read-out: Antibacterial activity SE (Staphylococcus epidermidis)
[4] = test system: Human hepatocytes (HepaRG cells); assay: human cytotoxicity assay in vitro (CellTiter-Glo), hepatocytes; conditions: cytotoxicity class
[5] = test system: Streptococcus pneumoniae (Chester, ATCC49619); assay: broth microdilution MIC assay, Streptococcus pneumoniae; conditions: MIC100 class score, 24 h
[6] = test system: penicillin-, erythromycin- and tetracycline-resistant Streptococcus pneumoniae (ATCC 700677), ARSP; assay: microbe, parasite or virus in culture; conditions: ATCC700677, read-out: Antibacterial activity ARSP (multi-drug resistant-SP)
[7] = 24 h, read-out: Antibacterial activity Staphylococcus aureus (MSSA)
[8] = read-out: Antibacterial activity MSSA (Staphylococcus aureus MSSA)
[9] = 24 h, read-out: Antibacterial activity Staphylococcus aureus (MRSA)
[10] = read-out: Antibacterial activity MRSA (Staphylococcus aureus MRSA)

Structure (SMILES) | MIC [1, 8] | MIC [2, 10] | cytotoxicity cell line H (hepatocytes) [4] | Antibacterial activity Streptococcus pneumoniae [5] | also measured
Cc1[nH]c(-c2ccc(-c3ccccc3Cl)o2)nc1-c1ccccc1 [Compound 3] | 3 to 10 µg/mL (≈ 8.96 to 29.9 µM) | 11 to 201 µg/mL (≈ 32.9 to 600 µM) | 3 | – | MIC [1, 7]: 3 to 10 µg/mL (≈ 8.96 to 29.9 µM); MIC [2, 9]: 11 to 201 µg/mL (≈ 32.9 to 600 µM); MIC [3]: 11 to 201 µg/mL (≈ 32.9 to 600 µM)
Cc1nc(-c2ccc(-c3cccc(Cl)c3)o2)[nH]c1-c1ccccc1 [Compound 4] | 1 to 3 µg/mL (≈ 2.99 to 8.96 µM) | 11 to 201 µg/mL (≈ 32.9 to 600 µM) | – | – | MIC [1, 7]: 1 to 3 µg/mL (≈ 2.99 to 8.96 µM); MIC [2, 9]: 11 to 201 µg/mL (≈ 32.9 to 600 µM); MIC [3]: 3 to 10 µg/mL (≈ 8.96 to 29.9 µM)
Cc1nc(-c2ccc(-c3ccc(Cl)cc3)o2)[nH]c1-c1ccccc1 [Compound 5] | 1 to 3 µg/mL (≈ 2.99 to 8.96 µM) | 3 to 10 µg/mL (≈ 8.96 to 29.9 µM) | 2 | – | MIC [1, 7]: 1 to 3 µg/mL (≈ 2.99 to 8.96 µM); MIC [2, 9]: 3 to 10 µg/mL (≈ 8.96 to 29.9 µM); MIC [3]: 3 to 10 µg/mL (≈ 8.96 to 29.9 µM)
Cc1[nH]c(-c2cc(C)n(-c3ccc(Cl)cc3)c2C)nc1-c1ccccc1 [Compound 8] | – | 20 to 50 µg/mL (≈ 55.3 to 138 µM) | 2 | 3 (MIC100 of 2-5 μg/ml) | –
Cc1[nH]c(-c2cc(C)n(-c3ccc(F)cc3F)c2C)nc1-c1ccccc1 [Compound 9] | – | 20 to 50 µg/mL (≈ 55 to 138 µM) | 3 | 2 (MIC100 of 6-10 μg/ml) | –
Cc1[nH]c(-c2cc(C)n(-c3ccc(F)c(F)c3F)c2C)nc1-c1ccccc1 [Compound 10] | – | – | 3 | 2 (MIC100 of 6-10 μg/ml) | –
Cc1[nH]c(-c2ccc(-c3ccccc3OC(F)(F)F)o2)nc1-c1ccc(C(F)(F)F)cc1 [Compound 26] | – | – | – | 3 (MIC100 of 2-5 μg/ml) | MIC [6]: 6 to 10 µg/mL (≈ 13.3 to 22.1 µM)
Cc1nc(-c2ccc(-c3ccccc3OC(F)(F)F)o2)[nH]c1-c1ccc(Br)cc1 [Compound 29] | 3 to 10 µg/mL (≈ 6.48 to 21.6 µM) | 11 to 201 µg/mL (≈ 23.7 to 434 µM) | – | 3 (MIC100 of 2-5 μg/ml) | Antibacterial activity Staphylococcus aureus (MSSA) ([1]; 24 h): 3 (MIC100 of 3-10 μg/ml); Antibacterial activity Staphylococcus aureus (MRSA) ([2]; 24 h): 2 (MIC100 of 11-201 μg/ml)
COc1ccc(-c2ccc(-c3nc(C)c(-c4ccccc4)[nH]3)o2)c(C(F)(F)F)c1 [Compound 31] | 3 to 10 µg/mL (≈ 7.53 to 25.1 µM) | 3 to 10 µg/mL (≈ 7.53 to 25.1 µM) | 3 | – | MIC [1, 7]: 3 to 10 µg/mL (≈ 7.53 to 25.1 µM); MIC [2, 9]: 3 to 10 µg/mL (≈ 7.53 to 25.1 µM)
Cc1nc(-c2ccc(-c3ccc(Cl)cc3C(F)(F)F)o2)[nH]c1-c1ccccc1 [Compound 32] | 1 to 3 µg/mL (≈ 2.48 to 7.45 µM) | 3 to 10 µg/mL (≈ 7.45 to 24.8 µM) | 2 | – | MIC [1, 7]: 1 to 3 µg/mL (≈ 2.48 to 7.45 µM); MIC [2, 9]: 3 to 10 µg/mL (≈ 7.45 to 24.8 µM); MIC [3]: 3 to 10 µg/mL (≈ 7.45 to 24.8 µM)
Cc1[nH]c(-c2ccn(-c3ccccc3C(F)(F)F)c2)nc1-c1ccccc1 [Compound 33] | 3 to 10 µg/mL (≈ 8.17 to 27.2 µM) | 20 to 50 µg/mL (≈ 54.4 to 136 µM) | – | 2 (MIC100 of 6-10 μg/ml) | Antibacterial activity Staphylococcus aureus (MSSA) ([1]; 24 h): 3 (MIC100 of 3-10 μg/ml); MIC [3]: 11 to 201 µg/mL (≈ 29.9 to 547 µM)
Cc1[nH]c(-c2cc(C)n(-c3cccc(C(F)(F)F)c3)c2C)nc1-c1ccccc1 [Compound 36] | – | 11 to 201 µg/mL (≈ 27.8 to 508 µM) | 3 | 3 (MIC100 of 2-5 μg/ml) | Antibacterial activity Staphylococcus aureus (MRSA) ([2]; 24 h): 2 (MIC100 of 11-201 μg/ml)
Cc1[nH]c(-c2ccc(-c3cccc(C(F)(F)F)c3)o2)nc1-c1ccc(F)cc1 [Compound 38] | 1 to 3 µg/mL (≈ 2.59 to 7.77 µM) | 1 to 3 µg/mL (≈ 2.59 to 7.77 µM) | – | 3 (MIC100 of 2-5 μg/ml) | MIC [6]: < 1 µg/mL; MIC [3]: 3 to 10 µg/mL (≈ 7.77 to 25.9 µM)
Cc1[nH]c(-c2ccc(-c3cc(C(F)(F)F)ccc3Cl)o2)nc1-c1ccccc1 [Compound 40] | – | – | 2 | – | –
Cc1[nH]c(-c2ccc(-c3ccc(C(F)(F)F)cc3)s2)nc1-c1ccccc1 [Compound 46] | 11 to 201 µg/mL (≈ 28.6 to 523 µM) | – | – | 3 (MIC100 of 2-5 μg/ml) | Antibacterial activity Staphylococcus aureus (MSSA) ([1]; 24 h): 2 (MIC100 of 11-201 μg/ml); MIC [6]: 2 to 5 µg/mL (≈ 5.2 to 13 µM)
Cc1[nH]c(-c2ccc(-c3ccc(OC(F)(F)F)c(Cl)c3)o2)nc1-c1ccc(Cl)cc1 [Compound 50] | 3 to 10 µg/mL (≈ 6.62 to 22.1 µM) | 11 to 201 µg/mL (≈ 24.3 to 443 µM) | – | – | MIC [1, 7]: 3 to 10 µg/mL (≈ 6.62 to 22.1 µM); MIC [2, 9]: 11 to 201 µg/mL (≈ 24.3 to 443 µM); MIC [3]: 20 to 50 µg/mL (≈ 44.1 to 110 µM)
Cc1ccc(-c2ccc(-c3nc(-c4ccccc4)c(C)[nH]3)o2)cc1 [Compound 52] | – | – | 3 | – | MIC [2, 9]: 20 to 50 µg/mL (≈ 63.6 to 159 µM)
CCc1ccc(-c2ccc(-c3nc(-c4ccccc4)c(C)[nH]3)o2)cc1 [Compound 53] | 3 to 10 µg/mL (≈ 9.13 to 30.4 µM) | 20 to 50 µg/mL (≈ 60.9 to 152 µM) | 3 | – | MIC [1, 7]: 3 to 10 µg/mL (≈ 9.13 to 30.4 µM); MIC [2, 9]: 20 to 50 µg/mL (≈ 60.9 to 152 µM)

Structure (SMILES) | MIC [1, 8] | MIC [2, 10] | cytotoxicity cell line H (hepatocytes) [4] | Antibacterial activity Streptococcus pneumoniae [5] | also measured
Cc1[nH]c(-c2cc(C)n(-c3ccc(C(C)C)cc3)c2C)nc1-c1ccccc1 [Compound 58] | – | 20 to 50 µg/mL (≈ 54.1 to 135 µM) | 3 | – | –
Cc1[nH]c(-c2cc(C)n(-c3ccc4c(c3)CCC4)c2C)nc1-c1ccccc1 [Compound 59] | – | – | 2 | 3 (MIC100 of 2-5 μg/ml) | –
Cc1ccccc1-c1ccc(-c2nc(-c3ccccc3)c(C)[nH]2)o1 [Compound 61] | – | – | 3 | – | –
Cc1cccc(C)c1-c1ccc(-c2nc(-c3ccccc3)c(C)[nH]2)o1 [Compound 62] | – | – | 3 | – | –
FC(F)(F)Oc1ccccc1-c1ccc(-c2ncc(-c3ccccc3)[nH]2)o1 [Compound 63] | 3 to 10 µg/mL (≈ 8.1 to 27 µM) | 3 to 10 µg/mL (≈ 8.1 to 27 µM) | 2 | 3 (MIC100 of 2-5 μg/ml) | Antibacterial activity Staphylococcus aureus (MSSA) ([1]; 24 h): 3 (MIC100 of 3-10 μg/ml); MIC [3]: 3 to 10 µg/mL (≈ 8.1 to 27 µM)
FC(F)(F)c1ccccc1-c1ccc(-c2nc(Cl)c(-c3ccccc3)[nH]2)o1 [Compound 65] | 11 to 201 µg/mL (≈ 28.3 to 517 µM) | – | 2 | – | Antibacterial activity Staphylococcus aureus (MSSA) ([1]; 24 h): 2 (MIC100 of 11-201 μg/ml)
FC(F)(F)Oc1ccccc1-c1ccc(-c2nc(-c3ccccc3Cl)c[nH]2)o1 [Compound 67] | – | – | 2 | 3 (MIC100 of 2-5 μg/ml) | MIC [6]: 6 to 10 µg/mL (≈ 14.8 to 24.7 µM); MIC [3]: 11 to 201 µg/mL (≈ 27.2 to 497 µM)
Cc1nc(-c2ccc(-c3ccccc3N(C)C)o2)[nH]c1-c1ccccc1 [Compound 71] | – | – | 3 | – | –
Cc1[nH]c(-c2coc(-c3ccccc3C(F)(F)F)c2)nc1-c1ccccc1 [Compound 72] | – | – | 3 | 2 (MIC100 of 6-10 μg/ml) | –
Cc1nc(-c2ccc(-c3ccc(F)cc3F)o2)[nH]c1-c1ccc(O)cc1 [Compound 80] | – | – | – | 3 (MIC100 of 2-5 μg/ml) | Antibacterial activity Staphylococcus aureus (MSSA) ([1]; 24 h): 3 (MIC100 of 3-10 μg/ml); Antibacterial activity Staphylococcus aureus (MRSA) ([2]; 24 h): 2 (MIC100 of 11-201 μg/ml)
CCCc1[nH]c(-c2ccc(-c3ccccc3)o2)nc1C [Compound 94] | – | – | – | 3 (MIC100 of 2-5 μg/ml) | Antibacterial activity Staphylococcus aureus (MRSA) ([2]; 24 h): 3 (MIC100 of 3-10 μg/ml)
CCCc1[nH]c(-c2ccc(-c3ccccc3[N+](=O)[O-])o2)nc1C [Compound 97] | – | – | – | 2 (MIC100 of 6-10 μg/ml) | Antibacterial activity Staphylococcus aureus (MRSA) ([2]; 24 h): 2 (MIC100 of 11-201 μg/ml)
CCCc1nc(-c2ccc(-c3ccccc3C)o2)[nH]c1C [Compound 100] | – | – | – | 3 (MIC100 of 2-5 μg/ml) | Antibacterial activity Staphylococcus aureus (MRSA) ([2]; 24 h): 2 (MIC100 of 11-201 μg/ml)
CCCc1nc(-c2ccc(-c3c(C)cccc3C)o2)[nH]c1C [Compound 103] | – | – | – | 3 (MIC100 of 2-5 μg/ml) | Antibacterial activity Staphylococcus aureus (MRSA) ([2]; 24 h): 3 (MIC100 of 3-10 μg/ml)
CCCc1nc(-c2ccc(-c3ccc(C(F)(F)F)cc3)o2)[nH]c1C [Compound 104] | – | – | – | 3 (MIC100 of 2-5 μg/ml) | Antibacterial activity Staphylococcus aureus (MRSA) ([2]; 24 h): 3 (MIC100 of 3-10 μg/ml)
CCCc1[nH]c(-c2ccc(-c3cccc4[nH]ccc34)o2)nc1C [Compound 108] | – | – | – | 2 (MIC100 of 6-10 μg/ml) | Antibacterial activity Staphylococcus aureus (MRSA) ([2]; 24 h): 2 (MIC100 of 11-201 μg/ml)
CCCc1[nH]c(-c2ccc(-c3ccc(O)cc3C(F)(F)F)o2)nc1C [Compound 110] | – | – | – | 3 (MIC100 of 2-5 μg/ml) | Antibacterial activity Staphylococcus aureus (MRSA) ([2]; 24 h): 3 (MIC100 of 3-10 μg/ml)

— US10322110B2, “Imidazole-based antimicrobial agents” (priority 2014, dated 2019)
